Experimental data as given in ChEMBL document CHEMBL5512690, “Identification and Validation of PKR as a Direct Target for the Novel Sulfonamide-Substituted Tetrahydroquinoline Nonselective Inhibitor of the NLRP3 Inflammasome” (J Med Chem, 2024).
pIC50: −log10 of the molar value.

Biological target: NACHT, LRR and PYD domains-containing protein 3 (Homo sapiens, UniProt Q96P20)
Sequence (Q96P20 whole entry, the tested form may be a part): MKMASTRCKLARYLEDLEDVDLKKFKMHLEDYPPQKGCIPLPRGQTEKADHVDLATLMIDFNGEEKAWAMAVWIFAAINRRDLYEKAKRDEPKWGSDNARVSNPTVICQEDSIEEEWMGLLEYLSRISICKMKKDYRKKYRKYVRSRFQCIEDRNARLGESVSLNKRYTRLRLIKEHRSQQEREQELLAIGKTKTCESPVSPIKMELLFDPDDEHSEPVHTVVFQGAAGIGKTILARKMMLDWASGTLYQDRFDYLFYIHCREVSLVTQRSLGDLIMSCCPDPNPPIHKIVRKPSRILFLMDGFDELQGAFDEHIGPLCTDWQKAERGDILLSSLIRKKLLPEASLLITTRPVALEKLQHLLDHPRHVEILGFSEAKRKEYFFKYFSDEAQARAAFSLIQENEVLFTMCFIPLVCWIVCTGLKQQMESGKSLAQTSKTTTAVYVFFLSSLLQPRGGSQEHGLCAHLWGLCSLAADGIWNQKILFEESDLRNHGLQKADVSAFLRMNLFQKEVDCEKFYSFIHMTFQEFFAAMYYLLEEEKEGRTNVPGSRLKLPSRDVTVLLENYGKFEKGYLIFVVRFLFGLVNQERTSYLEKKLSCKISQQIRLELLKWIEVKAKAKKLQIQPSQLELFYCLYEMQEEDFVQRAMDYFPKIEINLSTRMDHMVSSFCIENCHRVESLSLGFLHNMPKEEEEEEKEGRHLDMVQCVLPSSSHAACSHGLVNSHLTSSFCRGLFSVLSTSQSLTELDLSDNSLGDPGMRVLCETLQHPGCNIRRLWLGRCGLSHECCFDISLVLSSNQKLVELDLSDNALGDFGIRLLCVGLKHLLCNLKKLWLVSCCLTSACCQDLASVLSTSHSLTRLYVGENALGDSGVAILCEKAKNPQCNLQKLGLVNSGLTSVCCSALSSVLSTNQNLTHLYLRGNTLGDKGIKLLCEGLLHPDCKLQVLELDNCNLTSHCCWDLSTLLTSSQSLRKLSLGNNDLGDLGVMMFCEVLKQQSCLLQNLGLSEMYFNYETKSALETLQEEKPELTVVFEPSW
Description: Inhibition of NLRP3 inflammasome activation in LPS primed human differentiated THP-M cells derived PMA induced THP-1 cells assessed as inhibition of IL-1 beta level preincubated with compound for 24 hrs followed by LPS stimulation for 3 hrs and further incubated with ATP for 1 hr by ELISA method

pIC50	SMILES
5.27	O=C(O)c1ccc(/C=C2\SC(=S)N(Cc3cccc(C(F)(F)F)c3)C2=O)cc1

Tested on: not listed separately
Assay: Cytotoxicity against human differentiated THP-M cells derived PMA induced THP-1 cells measured after 72 hrs by MTT assay

SMILES	CC50
CC(C)(C)c1ccc(S(=O)(=O)Nc2ccc3c(c2)N(S(C)(=O)=O)CCC3)cc1	> 100 µM
CCCS(=O)(=O)Nc1ccc2c(c1)N(S(C)(=O)=O)CCC2	> 100 µM
CS(=O)(=O)N1CCCc2ccc(NS(=O)(=O)c3ccc(C#N)cc3)cc21	> 100 µM
CS(=O)(=O)N1CCCc2ccc(NS(=O)(=O)c3ccccc3[N+](=O)[O-])cc21	> 100 µM
COc1ccc(S(=O)(=O)Nc2ccc3c(c2)N(S(C)(=O)=O)CCC3)cc1	> 100 µM
CC(=O)Nc1ccc(S(=O)(=O)Nc2ccc3c(c2)N(S(C)(=O)=O)CCC3)cc1	> 100 µM
CS(=O)(=O)N1CCCc2ccc(NS(=O)(=O)c3ccc(C(F)(F)F)cc3)cc21	> 100 µM
Cc1ccc(S(=O)(=O)Nc2ccc3c(c2)N(S(C)(=O)=O)CCC3)cc1	> 100 µM
CCS(=O)(=O)Nc1ccc2c(c1)N(S(C)(=O)=O)CCC2	> 100 µM
CS(=O)(=O)N1CCCc2ccc(NS(=O)(=O)c3cc(C(F)(F)F)cc(C(F)(F)F)c3)cc21	> 100 µM
CC(=O)c1ccc(S(=O)(=O)Nc2ccc3c(c2)N(S(C)(=O)=O)CCC3)cc1	> 100 µM
CS(=O)(=O)Nc1ccc2c(c1)N(S(C)(=O)=O)CCC2	> 100 µM
CS(=O)(=O)N1CCCc2ccc(NS(=O)(=O)c3ccccc3F)cc21	> 100 µM
CS(=O)(=O)N1CCCc2ccc(NS(=O)(=O)c3cccc4ccccc34)cc21	> 100 µM
CS(=O)(=O)N1CCCc2ccc(NS(=O)(=O)c3ccc(Br)cc3)cc21	> 100 µM
CS(=O)(=O)N1CCCc2ccc(NS(=O)(=O)c3ccc(F)cc3)cc21	> 100 µM
CS(=O)(=O)N1CCCc2ccc(NS(=O)(=O)c3ccc4ccccc4c3)cc21	> 100 µM
CS(=O)(=O)N1CCCc2ccc(NS(=O)(=O)c3ccc(Cl)cc3)cc21	> 100 µM
CS(=O)(=O)N1CCCc2ccc(NS(=O)(=O)c3ccc([N+](=O)[O-])cc3)cc21	> 100 µM
CS(=O)(=O)N1CCCc2ccc(NS(=O)(=O)c3ccccn3)cc21	> 100 µM
CS(=O)(=O)N1CCCc2ccc(NS(=O)(=O)c3cccc(F)c3)cc21	> 100 µM
COC(=O)c1ccc(S(=O)(=O)Nc2ccc3c(c2)N(S(C)(=O)=O)CCC3)cc1	> 100 µM
COC(=O)c1ccsc1S(=O)(=O)Nc1ccc2c(c1)N(S(C)(=O)=O)CCC2	> 100 µM
CS(=O)(=O)N1CCCc2ccc(NS(=O)(=O)c3ccccc3)cc21	> 100 µM
CS(=O)(=O)N1CCCc2ccc(NS(=O)(=O)Cc3ccccc3)cc21	> 100 µM
CS(=O)(=O)N1CCCc2ccc(NS(=O)(=O)c3cccs3)cc21	> 100 µM
CS(=O)(=O)N1CCCc2ccc(NS(=O)(=O)c3cccc4cccnc34)cc21	> 100 µM
CCCCS(=O)(=O)Nc1ccc2c(c1)N(S(C)(=O)=O)CCC2	> 100 µM
O=C(O)c1ccc(/C=C2\SC(=S)N(Cc3cccc(C(F)(F)F)c3)C2=O)cc1	> 100 µM
